Converted amounts (≈) assume the structure as drawn.
Key:
Assay in all cases: In vitro antifungal activity, serial agar dilution method (Table 1a)
Assay type in all cases: cell-based
Candida albicans A25578 = conditions: A25578, YM agar (pH 7.0, Difco), 30°C for 2 days (yeast) or 4 days (filamentous fungi), read-out: MICs, Candida albicans A25578
Description: (§1) The inoculum size was adjusted to 10⁶ cells/ml, and a volume of approximately 0.003 ml of fungal suspension was applied to the surface of the antibiotic containing agar plates with a multiinoculator. After incubation, the lowest concentration of antibiotic causing virtually complete inhibition of fungal growth was determined as the minimum inhibitory concentration (MIC).

Candida albicans A9540 = conditions: A9540, YM agar (pH 7.0, Difco), 30°C for 2 days (yeast) or 4 days (filamentous fungi), read-out: MICs, Candida albicans A9540
Description: as §1

[1] = test system: Trichophyton rubrum A26761; conditions: A26761, YM agar (pH 7.0, Difco), 30°C for 2 days (yeast) or 4 days (filamentous fungi), read-out: MICs, Trichophyton rubrum A26761
Description: as §1

[2] = test system: Saccharomyces cerevisiae A25803; conditions: YM agar (pH 7.0, Difco), 30°C for 2 days (yeast) or 4 days (filamentous fungi), read-out: MICs, Saccharomyces cerevisiae A25803
Description: as §1

[3] = test system: Trichophyton mentagrophytes A26771; conditions: A26771, YM agar (pH 7.0, Difco), 30°C for 2 days (yeast) or 4 days (filamentous fungi), read-out: MICs, Trichophyton mentagrophytes A26771
Description: as §1

[4] = test system: Microsporum canis WW10218; conditions: WW10218, YM agar (pH 7.0, Difco), 30°C for 2 days (yeast) or 4 days (filamentous fungi), read-out: MICs, Microsporum canis WW10218
Description: as §1

[5] = test system: Candida tropicalis A25812; conditions: A25812, YM agar (pH 7.0, Difco), 30°C for 2 days (yeast) or 4 days (filamentous fungi), read-out: MICs, Candida tropicalis A25812
Description: as §1

[6] = test system: Cryptococcus neoformans A15053; conditions: A15053, YM agar (pH 7.0, Difco), 30°C for 2 days (yeast) or 4 days (filamentous fungi), read-out: MICs, Cryptococcus neoformans A15053
Description: as §1

CN[C@@H]1[C@H](O[C@@H]2OC[C@@H](O)[C@H](O)[C@H]2O)[C@@H](O)[C@H](O[C@H]2c3cc(C)c(C(=O)N[C@H](C)C(=O)O)c(O)c3-c3c(cc4c(c3O)C(=O)c3cc(OC)cc(O)c3C4=O)[C@@H]2O)O[C@@H]1C [Pradimicin A, reference compound] gave an MIC (Candida albicans A25578) of 3.2 µg/mL (≈ 3.81 µM), an MIC (Candida albicans A9540) greater than 50 µg/mL and an MIC [1] of 6.3 µg/mL (≈ 7.49 µM). It also gave an MIC [2] of 0.8 µg/mL (≈ 0.951 µM), an MIC [3] of 6.3 µg/mL (≈ 7.49 µM) and an MIC [4] of 1.6 µg/mL (≈ 1.9 µM). For the same compound, the MIC [5] was greater than 50 µg/mL and the MIC [6] was 0.4 µg/mL (≈ 0.476 µM).
